Biological target: T1, hT1R1/hT1R3 umami receptor expressed in an HEK293 cell line (Homo sapiens, UniProt Q7RTX0+Q7RTX1)
T1 construct: expressed in transfected cells; host or cells: HEK293 cell line derivative, hT1R1/hT1R3-HEK293-Gα15, clone I-17, mifepristone-induced
T1 sequence (Q7RTX1 21-841): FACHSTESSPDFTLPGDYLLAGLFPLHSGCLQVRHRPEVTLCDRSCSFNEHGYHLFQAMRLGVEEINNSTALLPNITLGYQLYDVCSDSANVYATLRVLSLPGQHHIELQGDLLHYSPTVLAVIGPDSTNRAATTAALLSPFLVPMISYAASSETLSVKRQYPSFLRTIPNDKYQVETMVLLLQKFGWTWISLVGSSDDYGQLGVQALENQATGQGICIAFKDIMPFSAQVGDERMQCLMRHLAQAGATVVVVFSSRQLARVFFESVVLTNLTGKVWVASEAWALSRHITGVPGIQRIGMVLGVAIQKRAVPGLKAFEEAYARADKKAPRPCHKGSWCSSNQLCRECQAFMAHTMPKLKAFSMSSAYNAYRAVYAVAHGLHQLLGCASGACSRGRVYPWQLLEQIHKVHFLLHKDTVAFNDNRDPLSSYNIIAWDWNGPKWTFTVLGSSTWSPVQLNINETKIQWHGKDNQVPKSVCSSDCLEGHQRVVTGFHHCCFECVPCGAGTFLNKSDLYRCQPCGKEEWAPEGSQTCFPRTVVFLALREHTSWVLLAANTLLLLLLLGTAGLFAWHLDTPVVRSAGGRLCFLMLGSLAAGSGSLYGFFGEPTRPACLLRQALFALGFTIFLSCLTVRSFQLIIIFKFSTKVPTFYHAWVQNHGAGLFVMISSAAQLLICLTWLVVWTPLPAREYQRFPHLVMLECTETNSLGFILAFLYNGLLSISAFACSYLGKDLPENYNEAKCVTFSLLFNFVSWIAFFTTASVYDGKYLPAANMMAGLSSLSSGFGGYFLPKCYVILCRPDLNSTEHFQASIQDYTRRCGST
T1 sequence (Q7RTX0 21-852): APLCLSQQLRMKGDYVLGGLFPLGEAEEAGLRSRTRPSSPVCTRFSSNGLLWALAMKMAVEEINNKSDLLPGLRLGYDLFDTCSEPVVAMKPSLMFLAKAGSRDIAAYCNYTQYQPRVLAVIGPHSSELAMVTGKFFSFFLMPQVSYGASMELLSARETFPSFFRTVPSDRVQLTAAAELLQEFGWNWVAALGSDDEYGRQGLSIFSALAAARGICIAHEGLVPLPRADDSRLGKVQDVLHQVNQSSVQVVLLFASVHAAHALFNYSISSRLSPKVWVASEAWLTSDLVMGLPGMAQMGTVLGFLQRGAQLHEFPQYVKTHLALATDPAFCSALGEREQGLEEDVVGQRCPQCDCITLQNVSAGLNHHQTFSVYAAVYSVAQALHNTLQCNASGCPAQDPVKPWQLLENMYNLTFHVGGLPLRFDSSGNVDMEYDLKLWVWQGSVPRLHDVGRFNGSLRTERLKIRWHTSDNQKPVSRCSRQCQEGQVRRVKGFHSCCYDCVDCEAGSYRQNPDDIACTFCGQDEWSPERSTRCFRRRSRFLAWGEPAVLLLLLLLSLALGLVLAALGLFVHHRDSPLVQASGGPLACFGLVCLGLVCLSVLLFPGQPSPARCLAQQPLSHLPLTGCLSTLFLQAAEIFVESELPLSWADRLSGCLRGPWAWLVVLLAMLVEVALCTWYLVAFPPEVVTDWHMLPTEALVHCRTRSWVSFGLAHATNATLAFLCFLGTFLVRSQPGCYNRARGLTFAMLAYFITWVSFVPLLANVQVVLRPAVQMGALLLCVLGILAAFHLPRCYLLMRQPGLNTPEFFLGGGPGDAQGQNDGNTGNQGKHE
Assay: In vitro hT1R1/hT1R3 umami taste receptor activation assay (FLIPR, dose response)
Assay type: cell-based
Conditions: Table A, triazoles; read-out: Umami EC50
Protocol: Activity was determined using an automated fluorometric imaging assay on a FLIPR instrument ([…], Molecular Devices, Sunnyvale, Calif.) (designated FLIPR assay). […] After replacement with 25 μl D-PBS, stimulation was performed in the FLIPR instrument and at room temperature by the addition of 25 μl D-PBS supplemented with different stimuli at concentrations corresponding to twice the desired final level. Receptor activity was quantified by determining the maximal fluorescence increases (using a 480 nm excitation and 535 nm emission) after normalization to basal fluorescence intensity measured before stimulation.
Activities were normalized to the response obtained with 60 mM monosodium glutamate, a concentration that elicits maximum receptor response.

| EC50 [µM] | Structure (SMILES) |
| --- | --- |
| 2.48 | Clc1ccccc1-c1n[nH]c(SCc2ccccn2)n1 [Example A14, 2-((5-(2-chlorophenyl)-2H-1,2,4-triazol-3-ylthio)methyl)pyridine] |
| 9.41 | Cc1ccoc1-c1n[nH]c(SCc2ccccn2)n1 [Example A21, 2-((5-(3-methylfuran-2-yl)-2H-1,2,4-triazol-3-ylthio)methyl)pyridine] |
| 7.92 | Cn1c(Cc2ccsc2)nnc1SCc1ccc(Cl)cc1 [Example A27, 3-(4-chlorobenzylthio)-4-methyl-5-(thiophen-3-ylmethyl)-4H-1,2,4-triazole] |
| 13 | Cn1c(Cc2ccccc2)nnc1SCc1ccc(Cl)c(Cl)c1 [Example A23, 3-benzyl-5-(3,4-dichlorobenzylthio)-4-methyl-4H-1,2,4-triazole] |
| 1.89 | CCn1c(SCc2cccnc2)nnc1-c1cc2ccccc2cc1O [Example A26, 3-(4-ethyl-5-(pyridin-3-ylmethylthio)-4H-1,2,4-triazol-3-yl)naphthalen-2-ol] |
| 1.35 | c1ccc(CSc2nc(-c3cccc4c3OCO4)n[nH]2)nc1 [Example A11, 2-((5-(benzo[d][1,3]dioxol-4-yl)-2H-1,2,4-triazol-3-ylthio)methyl)pyridine] |
| 6.05 | Cn1c(Cc2ccccc2)nnc1SCc1ccc(Cl)cc1Cl [Example A24, 3-benzyl-5-(2,4-dichlorobenzylthio)-4-methyl-4H-1,2,4-triazole] |
| 7.38 | COc1ccccc1-c1n[nH]c(SCCc2ccccn2)n1 [Example A22, 2-(2-(5-(2-methoxyphenyl)-2H-1,2,4-triazol-3-ylthio)ethyl)pyridine] |
| 13.1 | CCn1c(SCc2cccnc2)nnc1-c1cccc(C)c1 [Example A25, 3-((4-ethyl-5-m-tolyl-4H-1,2,4-triazol-3-ylthio)methyl)pyridine] |
| 1.07 | COc1ccc(-c2n[nH]c(SCc3ccc(C)cn3)n2)c(OC)c1 [Example A9, 2-((5-(2,4-dimethoxyphenyl)-2H-1,2,4-triazol-3-ylthio)methyl)-5-methylpyridine] |

Same assay, conditions: Table B, pyridazines; read-out: Umami EC50

| EC50 [µM] | Structure (SMILES) |
| --- | --- |
| 8.4 | c1cncc(CSc2ccc(-c3ccc4c(c3)OCCO4)nn2)c1 [Example B3, 3-(2,3-dihydrobenzo[b][1,4]dioxin-6-yl)-6-(pyridin-3-ylmethylthio)pyridazine] |

Same assay, conditions: Table C, tetrazole; read-out: Umami EC50

| EC50 [µM] | Structure (SMILES) |
| --- | --- |
| 5.91 | CSc1ccc(-c2nnn(Cc3ccccn3)n2)cc1 [Example C1, 2-((5-(4-(methylthio)phenyl)-2H-tetrazol-2-yl)methyl)pyridine] |

Same assay, conditions: read-out: EC50 for activation of a hT1R1/hT1R3 umami receptor expressed in an HEK293 cell line

| EC50 [µM] | Structure (SMILES) |
| --- | --- |
| 4.66 | Cc1ccc(-c2cn(Cc3ccccn3)nn2)cc1 [Example 11, 2-((4-p-Tolyl-1H-1,2,3-triazol-1-yl)methyl)pyridine] |
| 0.02 | CCc1ccc(-c2nc(SCc3ccccn3)n[nH]2)c(C)c1 [Example 10, 2-((5-(4-Ethyl-2-methylphenyl)-1H-1,2,4-triazol-3-ylthio)methyl)pyridine] |
| 1.5 | Cc1ccc(-c2ccc(SCc3ccccn3)nn2)c(C)c1 [Example 13, 3-(2,4-Dimethylphenyl)-6-(pyridin-2-ylmethylthio)pyridazine] |
| 6.9 | Cc1ccc(-c2ccc(OCc3ccccn3)nn2)c(C)c1 [Example 15, 3-(2,4-Dimethylphenyl)-6-(pyridin-2-ylmethoxy)pyridazine] |
| 2.7 | Cc1ccc(-c2ccc(SCc3ccccc3)nn2)c(C)c1 [Example 14, 3-(Benzylthio)-6-(2,4-dimethylphenyl)pyridazine] |
| 15.2 | Cc1ccc(-c2ccc(SCc3cccnc3)nn2)c(C)c1 [Example 17] |
| 0.05 | CCc1ccc(-c2nc(SCc3ccccn3)n[nH]2)c(OC)c1 [Example 18, 2-((5-(4-ethyl-2-methoxyphenyl)-1H-1,2,4-triazol-3-ylthio)methyl)pyridine] |
| 16.4 | Cc1ccc(-c2cn(CCc3ccccn3)nn2)cc1 [Example 12, 2-(2-(4-p-Tolyl-1H-1,2,3-triazol-1-yl)ethyl)pyridine] |
| 0.49 | COc1cc(C)ccc1-c1nc(SCc2ccc(C)cn2)n[nH]1 [Example 2, 2-((5-(2-methoxy-4-methylphenyl)-1H-1,2,4-triazol-3-ylthio)methyl)-5-methylpyridine] |

From US8784782B2 (Senomyx, Inc., priority 2005, dated 2014)
